The source of these data is patent publication US4868177A, “1,2,3,4-tetrahydro-1,9-acridinediamines, pharmaceutical compositions and use” (priority 1988, dated 1989).

As a reminder, the IC50 is the concentration at which inhibition is half-maximal. A high value points to lower potency.

Experiment [1] deals with acetylcholinesterase (Homo sapiens, UniProt P22303). The experiment can be described thus: Cholinesterase Inhibition Assay (photometric method of Ellman et al.). The experiment is classed as biochemical. In general terms: Ellman's reagent forms a yellow product with free thiols.
Experiment [2] relates to mice. The experiment can be described thus: Dark Avoidance Assay (reversal of scopolamine induced memory deficit). Format: in vivo. Conditions: retested 24 hours later. How it is done: This utility can also be ascertained by determining the ability of these compounds to restore cholinergically deficient memory in the Dark Avoidance Assay. In this assay mice are tested for their ability to remember an unpleasant stimulus for a period of 24 hours. A mouse is placed in a chamber that contains a dark compartment; a strong incadescent light drives it to the dark compartment, where an electric shock is administered through metal plates on the floor. The animal is removed from the testing apparatus and tested again, 24 hours later, for the ability to remember the electric shock.
If scopolamine, an anticholinergic that is known to cause memory impairment, is administered before an animal's initial exposure to the test chamber, the animal re-enters the dark compartment shortly after being placed in the test chamber 24 hours later. This effect of scopolamine is blocked by an active test compound, resulting in a greater interval before re-entry into the dark compartment.
The results for an active compound are expressed as the percent of a group of animals in which the effect of scopolamine is blocked, as manifested by an increased interval between being placed in the test chamber and re-entering the dark compartment.

Where a name gives a salt, the structure may show the parent alone.

Chain of acetylcholinesterase (P22303 32-614): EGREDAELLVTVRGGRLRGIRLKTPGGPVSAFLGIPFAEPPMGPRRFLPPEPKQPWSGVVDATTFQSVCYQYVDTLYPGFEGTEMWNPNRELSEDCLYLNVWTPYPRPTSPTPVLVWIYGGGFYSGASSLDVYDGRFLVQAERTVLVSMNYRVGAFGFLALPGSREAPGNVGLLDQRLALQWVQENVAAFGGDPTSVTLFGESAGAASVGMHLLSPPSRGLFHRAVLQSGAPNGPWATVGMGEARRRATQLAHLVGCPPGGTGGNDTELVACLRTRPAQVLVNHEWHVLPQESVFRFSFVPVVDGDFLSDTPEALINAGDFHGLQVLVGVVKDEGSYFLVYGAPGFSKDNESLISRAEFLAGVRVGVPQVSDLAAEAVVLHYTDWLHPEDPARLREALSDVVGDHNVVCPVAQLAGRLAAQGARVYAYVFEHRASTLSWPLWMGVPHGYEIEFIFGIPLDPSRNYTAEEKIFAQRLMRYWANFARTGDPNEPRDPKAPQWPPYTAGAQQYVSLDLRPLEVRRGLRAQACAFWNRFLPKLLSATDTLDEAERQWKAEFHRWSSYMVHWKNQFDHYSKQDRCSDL

In experiment [1], `Nc1c2c(nc3ccccc13)CCCC2NCc1ccccc1` (stereo not drawn) [N1 -Benzyl-1,2,3,4-tetrahydro-1,9-acridinediamine] had an IC50 of 20 µM.

For `Nc1c2c(nc3ccccc13)CCCC2N1CCCCC1` (stereo not drawn) [1-(1-Piperidinyl)-1,2,3,4-tetrahydro-9-acridinamine], it took 8.4 µM to reach half-maximal inhibition in experiment [1] (IC50). For the same compound, the “% of animals with scopolamine induced memory deficit reversal” value (shortened to “% of animals”) in experiment [2] (0.16 mg/kg body weight) was found to be 13%.

As to `COc1ccc(CNC2CCCc3nc4ccccc4c(N)c32)cc1OC` (stereo not drawn) [N1-(3,4-Dimethoxybenzyl)-1,2,3,4-tetrahydro-1,9-acridinediamine], it took 39 µM to reach half-maximal inhibition in experiment [1] (IC50).

For the compound `CCNC1CCCc2nc3ccccc3c(N)c21` (stereo not drawn) [N1 -Ethyl-1,2,3,4-tetrahydrol, 9-acridinediamine, fumarate, hemi-hydrate], half-maximal inhibition in experiment [1] (IC50) required 4.8 µM.

The compound `CCCNC1CCCc2nc3ccccc3c(N)c21` (stereo not drawn) [N1 -Propyl-1,2,3,4-tetrahydro-1,9-acridinediamine] came in with an IC50 in experiment [1] of 13 µM. For the same compound, the “% of animals” value in experiment [2] (0.31 mg/kg body weight) was found to be 20%.

As to `[N-]=[N+]=NC1CCCc2nc3ccccc3c(N)c21` (stereo not drawn) [1-Azido-1,2,3,4-tetrahydro-9-acridinamine, maleate], the IC50 in experiment [1] came out at 12 µM.

As to `Nc1c2c(nc3ccccc13)CCCC2N1CCN(c2ccccc2)CC1` (stereo not drawn) [1-(4-Phenyl-1-piperazinyl)-1,2,3,4-tetrahydro-9-acridinamine, maleate], the IC50 in experiment [1] is above 1000 µM.

Turning to `CCCCNC1CCCc2nc3ccccc3c(N)c21` (stereo not drawn) [N1 -Butyl-1,2,3,4-tetrahydro-1,9-acridinediamine], the midpoint of inhibition in experiment [1], the IC50, lay at 49 µM.

`CN1CCN(C2CCCc3nc4ccccc4c(N)c32)CC1` (stereo not drawn) [1-(4-Methyl-1-piperazinyl)-1,2,3,4-tetrahydro-9-acridinamine] gave an IC50 in experiment [1] above 1000 µM.

Compound `Nc1c2c(nc3ccccc13)CCCC2NCCc1ccccc1` (stereo not drawn) [N1-(2-Phenylethyl)-1,2,3,4-tetrahydro-1,9-acridinediamine] returned an IC50 in experiment [1] of 19 µM.

`Nc1c2c(nc3ccccc13)CCCC2N1CCOCC1` (stereo not drawn) [1-(4-Morpholinyl)-1,2,3,4-tetrahydro-9-acridinamine] registered a concentration for half-maximal inhibition (IC50) in experiment [1] above 1000 µM.

For the compound `Nc1c2c(nc3ccccc13)CCCC2N1CCCC1` (stereo not drawn) [1-(1-Pyrrolidinyl)-1,2,3,4-tetrahydro-9-acridinamine], half-maximal inhibition in experiment [1] (IC50) required 18 µM.

With `CNC(=O)Oc1ccc2c(c1)[C@]1(C)CCN(C)[C@@H]1N2C` [Physostigmine, reference compound], the “% of animals” value in experiment [2] (0.31 mg/kg body weight) was found to be 20%.
